Measured values reported in ChEMBL document CHEMBL1201862, “PubChem BioAssay data set” (2004).
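Protocol summary: plate cells (96-well), add compound at 5 concentrations, incubate 48 h, interpolate endpoints linearly. GI50: concentration for 50% inhibition of growth.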 The source made the active and inactive calls. Cut-off read from the data, not from the text of the source: active = GI50 up to about 1.1 µM and inactive = higher.

How the values were obtained:
Experiment in all cases: inhibition of tumour cell growth, NCI panel, 48 h
[1] = test system: A549
[2] = test system: LOX IMVI
[3] = test system: OVCAR-5
[4] = test system: COLO 205
[5] = test system: CCRF-CEM
[6] = test system: UO-31
[7] = test system: EKVX
[8] = test system: SR
[9] = test system: MCF7
[10] = test system: UACC-62
[11] = test system: SK-MEL-2
[12] = test system: MDA-MB-435
[13] = test system: T47D
[14] = test system: SK-MEL-28
[15] = test system: HOP-62
[16] = test system: 786-0
[17] = test system: NCI-H522
[18] = test system: M14
[19] = test system: MOLT-4
[20] = test system: SF-539

Measured: GI50

OC(Cc1cccnc1)(c1ccccc1)c1ccccc1
inactive: [1] > 100 µM | [2] > 100 µM | [3] > 100 µM | [4] > 100 µM | [5] > 100 µM | [6] > 100 µM | [7] 17.8 µM | [8] 58.7 µM | [9] > 100 µM | [10] 91.6 µM | [11] > 100 µM | [12] 47 µM | [13] 59 µM | [14] > 100 µM | [15] > 100 µM | [16] > 100 µM | [17] 47 µM | [18] 68.1 µM

O=c1[nH]c(=O)n(CCOCP(=O)(O)O)nc1Br
inactive: [1] > 100 µM | [19] > 100 µM | [2] > 100 µM | [3] > 100 µM | [4] > 100 µM | [5] > 100 µM | [6] > 100 µM | [7] > 100 µM | [8] > 100 µM | [9] > 100 µM | [11] > 100 µM | [20] > 100 µM | [12] > 100 µM | [13] > 100 µM | [14] > 100 µM | [15] > 100 µM | [17] > 100 µM | [18] > 100 µM

COc1ccc(C=C2C(C)=NN(c3cccc(Cl)c3)C23C(Cl)C(=O)N3c2nc3ccccc3s2)cc1 (stereo not drawn)
inactive: [19] 15.9 µM | [2] 17.7 µM | [3] 17.3 µM | [5] 3.45 µM | [6] 16.3 µM | [7] 27.3 µM | [8] 21.6 µM | [9] 17.5 µM | [11] 17.4 µM | [20] 30.5 µM | [12] 16.5 µM | [13] 24.6 µM | [14] 9.25 µM | [15] 20 µM | [16] 16 µM | [17] 8.53 µM | [18] 17.2 µM

C=CCNC1=C2C[C@@H](C)C[C@@H](OC)[C@H](OC(=O)CCCCN)[C@H](C)/C=C(\C)[C@@H](OC(N)=O)[C@H](OC)/C=C\C=C(/C)C(=O)NC(=CC1=O)C2=O
inactive: [1] 11.9 µM | [19] 9.14 µM | [2] 12.6 µM | [3] 19 µM | [4] 5.22 µM | [5] 7.01 µM | [6] 19.5 µM | [7] 13.7 µM | [8] 4.93 µM | [9] 3.77 µM | [10] 14.6 µM | [11] 3.72 µM | [12] 12.8 µM | [13] 14.8 µM | [14] 18.5 µM | [15] 5.83 µM | [16] 13.4 µM | [17] 13.6 µM | [18] 13.4 µM

CC1(C)OC2[C@@H](CO[C@@]3([C@H]4OC(C)(C)O[C@@H]4CO)OC(C)(C)O[C@@H]23)O1 (stereo partly drawn)
inactive: [1] > 100 µM | [19] > 100 µM | [2] > 100 µM | [3] > 100 µM | [4] > 100 µM | [5] > 100 µM | [6] > 100 µM | [7] > 100 µM | [8] > 100 µM | [9] > 100 µM | [10] > 100 µM | [11] > 100 µM | [12] > 100 µM | [13] > 100 µM | [14] > 100 µM | [15] > 100 µM | [16] > 100 µM | [17] > 100 µM | [18] > 100 µM

O=C1Nc2ccccc2/C1=N/N=c1\cccc[nH]1
inactive: [1] 48.8 µM | [19] 49.3 µM | [2] 28.8 µM | [3] 51.5 µM | [4] 33.7 µM | [5] 18.8 µM | [6] 12.1 µM | [7] 14.5 µM | [8] 14.3 µM | [9] 8.17 µM | [10] 65.5 µM | [11] > 100 µM | [12] > 100 µM | [13] 38.5 µM | [14] > 100 µM | [15] 34.1 µM | [16] 12.9 µM | [17] 17.1 µM | [18] > 100 µM

COC(=O)C(O)P(=O)(OC)OC (stereo not drawn)
inactive: [1] > 100 µM | [19] > 100 µM | [2] > 100 µM | [3] > 100 µM | [4] > 100 µM | [6] > 100 µM | [7] > 100 µM | [8] > 100 µM | [9] > 100 µM | [10] > 100 µM | [11] > 100 µM | [12] > 100 µM | [13] > 100 µM | [14] > 100 µM | [15] > 100 µM | [16] > 100 µM | [17] > 100 µM | [18] > 100 µM

CC(C#N)(NO)C(C)(C#N)NO (stereo not drawn)
inactive: [1] > 100 µM | [19] > 100 µM | [2] > 100 µM | [3] > 100 µM | [4] 81.1 µM | [5] > 100 µM | [6] > 100 µM | [7] > 100 µM | [8] > 100 µM | [9] > 100 µM | [10] > 100 µM | [11] > 100 µM | [20] > 100 µM | [12] > 100 µM | [13] > 100 µM | [14] > 100 µM | [16] > 100 µM | [17] > 100 µM | [18] > 100 µM

CCOP(=O)(OCC)C(Nc1cccc(F)c1)c1ccccc1 (stereo not drawn)
inactive: [1] 43.9 µM | [19] 30 µM | [2] 75.7 µM | [4] 34.4 µM | [5] 47.1 µM | [6] 44.8 µM | [7] 40.5 µM | [8] 38.9 µM | [9] 76.6 µM | [10] 63 µM | [11] 47.9 µM | [20] > 100 µM | [12] 78.9 µM | [13] 22.7 µM | [14] > 100 µM | [15] > 100 µM | [16] > 100 µM | [17] 36.1 µM | [18] 69.5 µM

[O-][Cl+3]([O-])([O-])[O-].[O-][Cl+3]([O-])([O-])[O-].c1ccn2c(N3CCCC3)[n+]3c4ccccc4n4c(N5CCCC5)[n+]5ccccc5c4c3c2c1
inactive: [1] > 100 µM | [19] > 100 µM | [2] > 100 µM | [3] > 100 µM | [4] 20 µM | [5] > 100 µM | [7] > 100 µM | [8] 38.1 µM | [9] 67.1 µM | [10] 41.8 µM | [11] 39.2 µM | [20] 57.9 µM | [12] > 100 µM | [13] 43.5 µM | [14] > 100 µM | [16] 27.6 µM | [17] 64.1 µM | [18] > 100 µM

CC(C)=CCC[C@@H](C)C1=CC(=O)C(C)=C(O)C1=O [ISOPEREZONE]
inactive: [1] 12.3 µM | [19] 1.71 µM | [2] 2.83 µM | [3] 14.4 µM | [4] 10.2 µM | [5] 1.19 µM | [6] 3.69 µM | [7] 5.56 µM | [8] 2.39 µM | [9] 3.62 µM | [10] 9.33 µM | [11] 9.64 µM | [12] 4.31 µM | [13] 2.13 µM | [14] 11 µM | [15] 12.9 µM | [16] 5.78 µM | [17] 1.36 µM | [18] 5.25 µM
